{
  "source": "patent US9532997B2",
  "about": "“Compositions and methods for promoting intestinal stem cell function” (Whitehead Institute for Biomedical Research, priority 2012, dated 2017)",
  "key": {"Paneth cells [1]": {"system": "Paneth cells", "assay": "Frequency of Paneth cells by flow cytometry in rapamycin-treated mice", "format": "in vivo", "settings": "Rapamycin 4 mg/kg daily i.p., 4 weeks, n=13-14, FIG. 3h", "source_text": "Mice were housed in the Unit for Laboratory Animal Medicine at the Whitehead Institute for Biomedical Research. Lgr5-EGFP-IRES-CreERT2 mice (Strain name: B6.129P2-Lgr5tm1(cre/ERT2)Cle/J, Stock Number: 008875) were purchased from Jackson Laboratories. UbiquitinC-CreERT2 mice were obtained from the Jackson Laboratory (Strain Name: B6; 129S-Tg(UBC-cre/ERT2)1Ejb/J, Stock Number: 007001). Rictor floxed mice were generated as described in^27 and backcrossed to C57BL/6 for at least 6 generations. TSC1^loxp/loxp mice were the generous gift of D. Kwiatkowski (Harvard Medical School) and backcrossed to C57BL/6 for at least 6 generations. Rosa26-CreERT2 mice (Rosa26 or R26) were obtained from the Jackson Laboratory (Strain 15 Name: B6.129-Gt(ROSA)26Sor^iml(cre/ERT2)Tyj/J, Stock Number 008463). CR was achieved by providing individual or paired mice a daily portion of a chow diet fortified with vitamins and minerals amounting to 60% of the daily food intake of their ad libitum counterparts^20. All adult mice used in CR experiments were between the ages of 10 to 24 weeks and were sacrificed prior to their daily feeding. Rictor or TSC1 was excised by treatment with tamoxifen suspended in corn or sunflower seed oil (Spectrum) at a concentration of 10 mg/mL, and 200 μl per 25 g of body weight was injected intraperitoneally into mice once daily for 5-7 days. […]"}, "mTORC1": {"biological_target": "T1, mTORC1 (Mus musculus, UniProt P26883+Q9JLN9)", "T1 construct": "from tissue; host or cells: mouse small intestine sections, isolated crypts and sorted Paneth cells", "assay": "Phospho-S6 (P-S6) immunostain as mTORC1 reporter in intestine / sorted Paneth cells", "format": "in vivo, mice", "settings": "overnight fasted mice treated before refeeding 5 hours, FIG. 2a", "source_text": "Mice were housed in the Unit for Laboratory Animal Medicine at the Whitehead Institute for Biomedical Research. Lgr5-EGFP-IRES-CreERT2 mice (Strain name: B6.129P2-Lgr5tm1(cre/ERT2)Cle/J, Stock Number: 008875) were purchased from Jackson Laboratories. UbiquitinC-CreERT2 mice were obtained from the Jackson Laboratory (Strain Name: B6; 129S-Tg(UBC-cre/ERT2)1Ejb/J, Stock Number: 007001). Rictor floxed mice were generated as described in^27 and backcrossed to C57BL/6 for at least 6 generations. TSC1^loxp/loxp mice were the generous gift of D. Kwiatkowski (Harvard Medical School) and backcrossed to C57BL/6 for at least 6 generations. Rosa26-CreERT2 mice (Rosa26 or R26) were obtained from the Jackson Laboratory (Strain 15 Name: B6.129-Gt(ROSA)26Sor^iml(cre/ERT2)Tyj/J, Stock Number 008463). CR was achieved by providing individual or paired mice a daily portion of a chow diet fortified with vitamins and minerals amounting to 60% of the daily food intake of their ad libitum counterparts^20. All adult mice used in CR experiments were between the ages of 10 to 24 weeks and were sacrificed prior to their daily feeding. Rictor or TSC1 was excised by treatment with tamoxifen suspended in corn or sunflower seed oil (Spectrum) at a concentration of 10 mg/mL, and 200 μl per 25 g of body weight was injected intraperitoneally into mice once daily for 5-7 days. […] Mice were allowed to recover for at least 7 days after the last tamoxifen injection prior to any experiments. In vivo fate mapping in Lgr5-EGFP-IRES-reERT2; Rosa26loxpstoploxp-LacZ compound mice was done with a single injection of tamoxifen given at 200 μl per 25 g. As described previously^28, Rapamycin (LC Laboratories) was administered by intraperitoneal injection for 7 to 28 consecutive doses at 4 mg/kg. It was reconstituted in absolute ethanol at 10 mg/ml and diluted in 5% Tween-80 (Sigma) and 5% PEG-400 (Hampton Research) before injection. The final volume of all injections was 200 μl. Regular insulin (Lilly) was administered at 0.75 U/kg diluted in PBS 20 minutes prior to sacrificing fasted mice. […]"}, "Paneth cells [2]": {"system": "Paneth cells", "assay": "Paneth cell numbers in small intestine after 10 Gy ionizing radiation (histology)", "format": "in vivo, mice", "settings": "for number of Paneth cells vs irradiated control, pre- and post-treatment: 4 mg/kg IP daily 1 week, 10 Gy gamma rays, then intermittent rapamycin two weeks, FIG. 14c; for number of Paneth cells vs irradiated control, post-treatment only: 10 Gy followed by intermittent rapamycin over two weeks, FIG. 14b", "description": "Paneth cells are essential to the survival of Lgr5+ intestinal stem cells. […] The clonogenicity of ISCs is enhanced by co-culturing of these cells with Paneth cells from mice treated with caloric restriction or rapamycin (FIG. 13a). […] Mice were also treated with 10 Gy of radiation followed by intermittent treatment with rapamycin over the two weeks. […] Accordingly, rapamycin and derivatives or analogs or other agents thereof which inhibit mTOR, and/or and caloric restriction can be employed as agents for increasing the number and function of intestinal stem cells and Paneth cells, and as radioprotective agents against the acute and late toxicities of deliberate and accidental exposure to ionizing radiation."}},
  "data": [
    {"smiles": "CO[C@H]1C[C@@H]2CC[C@@H](C)[C@@](O)(O2)C(=O)C(=O)N2CCCC[C@H]2C(=O)O[C@H]([C@H](C)C[C@@H]2CC[C@@H](O)[C@H](OC)C2)CC(=O)[C@H](C)/C=C(\\C)[C@@H](O)[C@@H](OC)C(=O)[C@H](C)C[C@H](C)/C=C/C=C/C=C/1C", "note": "[Rapamycin, sirolimus]", "values": [
      {"measurement": "increase in frequency of Paneth cells vs vehicle", "setting": "Paneth cells [1]", "value": "more than 1.5 fold"},
      {"measurement": "mTORC1 activation (P-S6) in Paneth cells by feeding", "setting": "mTORC1", "value": "blocked this activation"},
      {"measurement": "number of Paneth cells vs irradiated control, pre- and post-treatment", "setting": "Paneth cells [2]", "value": "increase in the number of morphologically normal Paneth cells"},
      {"measurement": "number of Paneth cells vs irradiated control, pre- and post-treatment", "setting": "Paneth cells [2]; listed as rapamycin", "value": "significantly higher numbers of Paneth cells"},
      {"measurement": "number of Paneth cells vs irradiated control, post-treatment only", "setting": "Paneth cells [2]", "value": "increase in the number of morphologically normal Paneth cells"},
      {"measurement": "number of Paneth cells vs irradiated control, post-treatment only", "setting": "Paneth cells [2]; listed as rapamycin", "value": "significantly higher numbers of Paneth cells"}
    ]}
  ]
}
